Source: patent publication US11186543B2, “Crystalline form of 3-((L-valyl)amino))-3,3-dideuterium-1-propanesulfonic acid, preparation method and uses thereof” (RISEN (SUZHOU) PHARMA TECH CO., LTD., priority 2018, dated 2021)

What was measured:
Type in all cases: physicochemical
[1] = Thermogravimetric Analysis (TGA)
Experimental: The thermogravimetric analyzer (TGA) involved herein is Q500TGA from TA Instruments; detection conditions: a platinum crucible, a protective atmosphere of nitrogen, a gas flow rate of 40 mL/min; and the following detection method: a Hi-Res sensitivity of 3.0, ramp 10.00° C./min, res 5.0 to 150.00° C., and ramp 10.00° C./min to 350° C. 4. Thermogravimetric Analysis (TGA) of Said Crystalline Form A The determination was carried out using the aforementioned instruments, determination methods, operating conditions, and parameters.

[2] = Dynamic Vapor Sorption (DVS) analysis; conditions: from 0% RH to 80% RH, 25° C.
Experimental: The dynamic vapor sorption (DVS) instrument involved herein is Q5000TGA from TA Instruments; detection conditions: a platinum crucible, a protective atmosphere of nitrogen, a gas flow rate of 10 mL/min; and the following detection method: [table] 5. Dynamic Vapor Sorption (DVS) Analysis of Said Crystalline Form A The determination was carried out using the aforementioned instruments, determination methods, operating conditions, and parameters.

[3] = Stability test of Crystalline Form A (XRD and DSC, Day 0 / Day 10); conditions: for change of crystalline form (XRD test): within 10 days
Experimental: Sample and experimental preparation: the Crystalline Form A as prepared in Example 2 was taken as a sample; a proper amount of the sample was weighted and placed on a watch glass to form a thin layer of about 3˜5 mm in thickness.
Experimental conditions: conventional (sealed and kept in darkness at 25° C.), long-term (uncovered and kept in darkness with −60% RH at 25° C.), and accelerated (uncovered and kept in darkness with −75% RH at 40° C.) conditions.
Detection time: Day 0, Day 10.
Detected items: crystalline forms (XRD test), and melting points (DSC test).

## [2H]C([2H])(CCS(=O)(=O)O)NC(=O)[C@@H](N)C(C)C [Crystalline Form A, 3-((L-valyl)amino)-3,3-dideuterium-1-propanesulfonic acid]
[1]; before 120° C.
  weight loss (TGA): about 0.9 wt %
[1]; ramp 10° C./min, nitrogen
  decomposition temperature (TGA): about 326 °C
[2]
  hygroscopicity class (DVS determination criteria): slightly hygroscopic
  weight change (DVS isotherm): about 0.3 wt %
[3]
  variation of melting point (DSC test): ±1 °C
[3]; accelerated: uncovered, kept in darkness with −75% RH at 40° C.
  change of crystalline form (XRD test): no change was detected
[3]; conventional: sealed, kept in darkness at 25° C.
  change of crystalline form (XRD test): no change was detected
[3]; long-term: uncovered, kept in darkness with −60% RH at 25° C.
  change of crystalline form (XRD test): no change was detected
